The target of data set [1] is T1, ASIC1a (Homo sapiens, UniProt P78348).
T1 sequence (P78348 1-528): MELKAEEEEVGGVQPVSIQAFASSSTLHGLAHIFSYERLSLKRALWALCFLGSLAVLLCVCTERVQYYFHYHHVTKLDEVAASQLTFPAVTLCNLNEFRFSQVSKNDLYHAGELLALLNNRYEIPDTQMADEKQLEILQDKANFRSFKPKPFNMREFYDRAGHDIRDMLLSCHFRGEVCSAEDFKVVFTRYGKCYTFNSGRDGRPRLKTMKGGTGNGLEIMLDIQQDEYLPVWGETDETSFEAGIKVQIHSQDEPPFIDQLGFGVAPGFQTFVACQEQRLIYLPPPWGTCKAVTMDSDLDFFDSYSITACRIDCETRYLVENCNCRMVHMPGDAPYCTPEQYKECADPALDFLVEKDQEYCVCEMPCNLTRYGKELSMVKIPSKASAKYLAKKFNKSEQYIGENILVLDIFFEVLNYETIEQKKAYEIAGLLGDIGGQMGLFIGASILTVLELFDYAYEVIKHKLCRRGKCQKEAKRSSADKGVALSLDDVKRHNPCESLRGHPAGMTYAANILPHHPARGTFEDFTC
The conditions noted are these: read-out: IC50, inhibitor of ASIC1a; cited from earlier work.

Data set [2] deals with Langendorff-perfused isolated mouse hearts. Nature of the data set: IRI in Langendorff-perfused isolated mouse hearts.
Method: IRI in Langendorff-perfused mouse hearts. […] Mice (12-14 weeks) were anesthetized via an intraperitoneal injection of 10 mg/mL ketamine and 1.6 mg/mL xylazil. The heart was excised via thoracotomy and the aorta cannulated. […] Temperature was continuously measured with thermocouple needle microprobes (SDR Scientific) and maintained at 37° C. with circulating water baths. Contractile function was measured via a fluid-filled balloon inserted in the left ventricle and connected to a pressure transducer (ADInstruments Pty Ltd.). Coronary flow was measured with an in-line Doppler flow probe positioned above the aortic cannulae (Transonic Systems Inc.). All functional data were recorded on a four-channel MacLab system (ADInstruments Pty Ltd.). Following 15-30 min of equilibration, hearts were switched to ventricular pacing at 420 beats/min (BPM) using a SD9 stimulator (Grass Instruments, Inc.). Baseline measurements were made for 10-20 min followed by 25 min of global normothermic ischemia and 45 min of reperfusion. Pacing was stopped during ischemia and resumed after 15 min of reperfusion. For peptide-treated experimental groups, 1 μM peptide solution was infused with a syringe pump (World Precision Instruments, LLC.) into the buffer, directly upstream of the cannula, at a rate of 1% of CF, for a final working concentration of 10 nM. Peptide was infused for 10 min prior to the onset of ischemia and during the first 15 min of reperfusion.
Data set [3] concerns hiPSC-CMs. Nature of the data set: In vitro acidosis injury of hiPSC-CMs, cell death (LDH). Type of data set: cell-based, human. The following applies: overnight at pH 5.0; even at concentrations as low as 1 nM. The text has this: In vitro ischemia-acidosis injury model with hiPSC-CMs. Differentiated cardiomyocytes were replated on either day 15 or day 17 of differentiation for in vitro ischemia/acidosis assays. At the time of replating, a subset of cells (˜500,000) was set aside for flow cytometry analysis of cardiomyocyte purity (see supplemental methods). For all experiments, only cell preparations with >80% sarcomeric α-actinin-positive cardiomyocytes were used. After re-plating, the cells were maintained for an additional 7 days in RPMI+B27™. To prepare media for ischemia/acidosis injury, 10×HBSS without sodium bicarbonate (Sigma) was diluted to 1× concentration in sterile tissue culture-grade water. Solutions were buffered with either 12 mM HEPES (for pH 7.4 media, Sigma Aldrich) or 12 mM MES (for pH <6.5, Sigma Aldrich) and the pH adjusted accordingly with 1 M NaOH. The medium was sterile filtered with 0.22 μm syringe filters (Millipore). […] For reperfusion experiments, the medium was replaced with HBSS pH 7.4 (with or without peptide) after overnight incubation and cultured for 1 h under normoxic conditions. […] For all cell culture experiments, percent cell death was calculated using low and high controls. For low control (LC), cardiomyocytes were cultured overnight in standard culture media (RPMI+B27™). For high control (HC), cells were cultured in RPMI+B27™ containing 1% Triton™ X-100 (Sigma-Aldrich).
To assess whether ASIC1a inhibition is cardioprotective in hiPSC-CMs, the inventors evaluated cell death in response to in vitro acidosis, induced by culturing hiPSC-CMs in Hank's […] (HBSS) with pH adjusted to pH 7.4, 6.0, or 5.0. […] To mimic ischemia/acidosis in vitro, hiPSC-CMs were incubated overnight in combined hypoxic (0.5% O2) and acidic (pH 5.0) conditions with or without peptide.

The subject of data set [4] is hiPSC-CMs. Nature of the data set: hiPSC-CM calcium analysis (FLIPR Tetra). The data set is classed as cell-based, human. The conditions noted are these: any evaluated concentration (1 nM - 1 μM). The method, then:
hiPSC-CM calcium analysis. Cardiomyocytes were replated (2×10^4 per well) in 384-well plates (CellBIND black with clear bottom, Corning) and cultured for 7 days in RPMI+B27™. On the day of the experiment, the cells were loaded for 1.5 h at 37° C. with FLIPR calcium 4 dye (Molecular Devices) diluted in HBSS pH 7.4. After loading, the plate was transferred to a FLIPR Tetra fluorescent plate reader (Molecular Devices). Calcium transients were measured with excitation wavelengths at 470-495 nm and emission at 515-575 nm. For each plate, the camera gain and intensity were adjusted to optimize signal intensity. Data for each well were expressed as normalized arbitrary fluorescence units. All data were acquired at 0.5 s per read, with baseline measurements for 45 s followed by at least 100 s of data collection after each peptide addition. Peptide solutions (in HBSS pH 7.4) were added to each well to give a final concentration of 1 nM, 10 nM, 100 nM, or 1 μM. Calcium amplitude, maximum calcium, minimum calcium, and spontaneous beating rate were analysed using ScreenWorks software (Molecular Devices) and normalized to baseline measurements.
Replated hiPSC-CMs were loaded with a fluorescent calcium dye and calcium transients were recorded before and after peptide addition.

Data set [5] deals with hiPSC-CMs. Nature of the data set: In vitro ischemia/acidosis with reperfusion in hiPSC-CMs, cell death (LDH). Type of data set: cell-based, human. The following applies: 10 nM; 18 h hypoxia (0.5% O2) pH 5.0, then 1 h pH 7.4 normoxia. From the text: In vitro ischemia-acidosis injury model with hiPSC-CMs. Differentiated cardiomyocytes were replated on either day 15 or day 17 of differentiation for in vitro ischemia/acidosis assays. At the time of replating, a subset of cells (˜500,000) was set aside for flow cytometry analysis of cardiomyocyte purity (see supplemental methods). For all experiments, only cell preparations with >80% sarcomeric α-actinin-positive cardiomyocytes were used. After re-plating, the cells were maintained for an additional 7 days in RPMI+B27™. To prepare media for ischemia/acidosis injury, 10×HBSS without sodium bicarbonate (Sigma) was diluted to 1× concentration in sterile tissue culture-grade water. Solutions were buffered with either 12 mM HEPES (for pH 7.4 media, Sigma Aldrich) or 12 mM MES (for pH <6.5, Sigma Aldrich) and the pH adjusted accordingly with 1 M NaOH. The medium was sterile filtered with 0.22 μm syringe filters (Millipore). […] For all cell culture experiments, percent cell death was calculated using low and high controls. […]
To assess whether ASIC1a inhibition is cardioprotective in hiPSC-CMs, the inventors evaluated cell death in response to in vitro acidosis, induced by culturing hiPSC-CMs in Hank's […] (HBSS) with pH adjusted to pH 7.4, 6.0, or 5.0. […]

The IC50 is the concentration that inhibits the measured activity by half. As for PcTx1, the IC50 in data set [1] is around 1 nM. This substance also gave an EDP in data set [2] (after 45 min reperfusion, 10 nM peptide) of 33±8 mmHg. Further, the “reactive hyperaemia during early reperfusion (increased CF)” value in data set [2] (first 5 min of reperfusion) is given as “significant reactive hyperaemia”. The baseline contractile function result in data set [2] (first 10 min of peptide infusion prior to ischemia, 10 nM) was “no effect”. In addition, the “cardioprotection against cell death (LDH)” value in data set [3] was “nearly complete cardioprotection”. Moreover, in data set [4], the calcium amplitudes result was “Neither Hi1a nor PcTx1 altered” and the spontaneous beating rate result is “Neither Hi1a nor PcTx1 altered”. Further, in data set [5], the cell death entry was “blocked”.
